Values quoted from earlier work, collected in article PMC5673907 (Clinical and Translational Science, 2017).

Test system: HDL inflammatory index
Conditions: simvastatin 40 mg daily

In the case of `CCC(C)(C)C(=O)O[C@H]1C[C@@H](C)C=C2C=C[C@H](C)[C@H](CC[C@@H]3C[C@@H](O)CC(=O)O3)[C@H]21` [simvastatin], the “Mean HII after statin” value is listed as “above 1.0 UR” and the “Drop in HII” value (6 weeks, statin-naive CHD/equivalent risk) is listed as 28%.
